Laboratory results reported in patent publication US12528826B2, “[1,4]oxazepino[2,3-c]quinolinone derivatives as BCL6 inhibitors” (Cancer Research Technology Limited, priority 2019, dated 2026).

What follows are compounds tested against T1, Trx-6×His-BCL6 (human BCL6 BTB domain covering amino-acid sequence 5-129) (Homo sapiens, UniProt P41182) (assay: HTRF assay (BCL6 / BCOR peptide)). Conditions: 1 nM Trx-6×His-BCL6, 300 nM BCOR-AF633 peptide, 2 hours incubation at room temperature.
T1 construct: made in house
Format: binding
Procedure: After 2 hours incubation at room temperature the plate was read on a Pherastar FSX (BMG Labtech) plate reader equipped with 337 nm laser excitation filter, a first emission filter at 620 nm and a second emission filter at 665 nm. The % inhibition at each concentration was calculated by normalising FRET ratio to the appropriate high (DMSO with all reagents) and low (DMSO without BCL6) controls.

| SMILES | HTRF avg pIC50 |
| --- | --- |
| Cn1c(=O)c2c(c3cc(Nc4nc(N5CCC[C@H](O)C5)ncc4Cl)ccc31)N[C@@H](C1CC1)C(F)(F)CO2 [Example 1i, (S)-10-((5-chloro-2-((S)-3-hydroxypiperidin-1-yl)pyrimidin-4-yl)amino)-2-cyclopropyl-3,3-difluoro-7-methyl-1,2,3,4-tetrahydro-[1,4]oxazepino[2,3-c]quinolin-6(7H)-one] | 8.51 |
| CC(=O)N[C@H]1C[C@@H](C)CN(c2ncc(Cl)c(Nc3ccc4c(c3)c3c(c(=O)n4C)OCC(F)(F)[C@H](C4CC4)N3)n2)C1 [Example 1f, N-((3S,5R)-1-(5-chloro-4-(((S)-2-cyclopropyl-3,3-difluoro-7-methyl-6-oxo-1,2,3,4,6,7-hexahydro-[1,4]oxazepino[2,3-c]quinolin-10-yl)amino)pyrimidin-2-yl)-5-methylpiperidin-3-yl)acetamide] | 8.60 |
| C[C@H]1CN(c2ncc(Cl)c(Nc3ccc4c(c3)c3c(c(=O)n4C)OCC(F)(F)[C@H](C4CC4)N3)n2)CCC1(F)F (single isomer, unassigned) [Example 14a, (S)-10-((5-chloro-2-((S)-4,4-difluoro-3-methylpiperidin-1-yl)pyrimidin-4-yl)amino)-2-cyclopropyl-3,3-difluoro-7-methyl-1,2,3,4-tetrahydro-[1,4]oxazepino[2,3-c]quinolin-6(7H)-one or (S)-10-((5-chloro-2-((R)-4,4-difluoro-3-methylpiperidin-1-yl)pyrimidin-4-yl)amino)-2-cyclopropyl-3,3-difluoro-7-methyl-1,2,3,4-tetrahydro-[1.4]oxazepino[2,3-c]quinolin-6(7H)-one] | 7.81 |
| Cn1c(=O)c2c(c3cc(Nc4ccnc(Cl)c4Cl)ccc31)N[C@@H](C1CC1)C(F)(F)CO2 [Example 4c, (S)-2-cyclopropyl-10-((2,3-dichloropyridin-4-yl)amino)-3,3-difluoro-7-methyl-1,2,3,4-tetrahydro-[1,4]oxazepino[2,3-c]quinolin-6(7H)-one] | 7.86 |

Same assay, conditions: 1 nM Trx-6×His-BCL6, 300 nM BCOR-AF633 peptide, 2 hours incubation at room temperature; read-out: HTRF avg pIC50 (converted)

| SMILES | IC50 |
| --- | --- |
| CC1CCCN(c2ncc(Cl)c(Nc3ccc4c(c3)c3c(c(=O)n4C)OCC(F)(F)[C@H](C4CC4)N3)n2)CC1 (mixture of isomers) [Example 11d, (S)-10-((5-chloro-2-((R)-4-methylazepan-1-yl)pyrimidin-4-yl)amino)-2-cyclopropyl-3,3-difluoro-7-methyl-1,2,3,4-tetrahydro-[1,4]oxazepino[2,3-c]quinolin-6(7H)-one:(S)-10-((5-chloro-2-((S)-4-methylazepan-1-yl)pyrimidin-4-yl)amino)-2-cyclopropyl-3,3-difluoro-7-methyl-1,2,3,4-tetrahydro-[1,4]oxazepino[2,3-c]quinolin-6(7H)-one (1:1)] | 64.6 nM |
| CC(=O)N[C@@H]1C[C@H](C)CN(c2ncc(Cl)c(Nc3ccc4c(c3)c3c(c(=O)n4C)OCC(F)(F)[C@H](C4CC4)N3)n2)C1 [Example 1g, N-((3R,5S)-1-(5-chloro-4-(((S)-2-cyclopropyl-3,3-difluoro-7-methyl-6-oxo-1,2,3,4,6,7-hexahydro-[1,4]oxazepino[2,3-c]quinolin-10-yl)amino)pyrimidin-2-yl)-5-methylpiperidin-3-yl)acetamide] | 3.16 nM |
| Cn1c(=O)c2c(c3cc(Nc4nc(N5CCC(F)(F)C(C(=O)N6CC(F)(F)C6)C5)ncc4Cl)ccc31)N[C@@H](C1CC1)C(F)(F)CO2 (mixture of isomers) [Example 12x19, (2S)-10-((5-chloro-2-(3-(3,3-difluoroazetidine-1-carbonyl)-4,4-difluoropiperidin-1-yl)pyrimidin-4-yl)amino)-2-cyclopropyl-3,3-difluoro-7-methyl-1,2,3,4-tetrahydro-[1,4]oxazepino[2,3-c]quinolin-6(7H)-one] | 5.89 nM |
| Cn1c(=O)c2c(c3cc(Nc4nc(N5CCCC(C(F)F)C5)ncc4Cl)ccc31)N[C@@H](C1CC1)C(F)(F)CO2 (mixture of isomers) [Example 11r, (S)-10-((5-chloro-2-((R)-3-(difluoromethyl)piperidin-1-yl)pyrimidin-4-yl)amino)-2-cyclopropyl-3,3-difluoro-7-methyl-1,2,3,4-tetrahydro-[1,4]oxazepino[2,3-c]quinolin-6(7H)-one:(S)-10-((5-chloro-2-((S)-3-(difluoromethyl)piperidin-1-yl)pyrimidin-4-yl)amino)-2-cyclopropyl-3,3-difluoro-7-methyl-1,2,3,4-tetrahydro-[1,4]oxazepino[2,3-c]quinolin-6(7H)-one (1:1)] | 10 nM |
| CC1CC(CC(=O)N2CCC2)CN(c2ncc(Cl)c(Nc3ccc4c(c3)c3c(c(=O)n4C)OCC(F)(F)[C@H](C4CC4)N3)n2)C1 (single isomer, unassigned) [Example 12x16b] | 5.37 nM |
| Cn1c(=O)c2c(c3cc(Nc4nc(N5CC(F)(F)C[C@H]5CO)ncc4Cl)ccc31)N[C@@H](C1CC1)C(F)(F)CO2 [Example 12x47, (S)-10-((5-chloro-2-((S)-4,4-difluoro-2-(hydroxymethyl)pyrrolidin-1-yl)pyrimidin-4-yl)amino)-2-cyclopropyl-3,3-difluoro-7-methyl-1,2,3,4-tetrahydro-[1,4]oxazepino[2,3-c]quinolin-6(7H)-one] | 8.32 nM |
| Cn1c(=O)c2c(c3cc(Nc4nc(N5CCC(F)(F)CC5CO)ncc4Cl)ccc31)N[C@@H](C1CC1)C(F)(F)CO2 (mixture of isomers) [Example 12x50, (2S)-10-((5-chloro-2-(4,4-difluoro-2-(hydroxymethyl)piperidin-1-yl)pyrimidin-4-yl)amino)-2-cyclopropyl-3,3-difluoro-7-methyl-1,2,3,4-tetrahydro-[1,4]oxazepino[2,3-c]quinolin-6(7H)-one] | 7.08 nM |
| COC[C@H]1CCCN1c1ncc(Cl)c(Nc2ccc3c(c2)c2c(c(=O)n3C)OCC(F)(F)[C@H](C3CC3)N2)n1 [Example 12x45b, (S)-10-((5-chloro-2-((R)-2-(methoxymethyl)pyrrolidin-1-yl)pyrimidin-4-yl)amino)-2-cyclopropyl-3,3-difluoro-7-methyl-1,2,3,4-tetrahydro-[1,4]oxazepino[2,3-c]quinolin-6(7H)-one] | 4.79 nM |
| COCC(C)CNc1ncc(Cl)c(Nc2ccc3c(c2)c2c(c(=O)n3C)OCC(F)(F)[C@H](C3CC3)N2)n1 (mixture of isomers) [Example 11m, (S)-10-((5-chloro-2-(((R)-3-methoxy-2-methylpropyl)amino)pyrimidin-4-yl)amino)-2-cyclopropyl-3,3-difluoro-7-methyl-1,2,3,4-tetrahydro-[1,4]oxazepino[2,3-c]quinolin-6(7H)-one:(S)-10-((5-chloro-2-(((S)-3-methoxy-2-methylpropyl)amino)pyrimidin-4-yl)amino)-2-cyclopropyl-3,3-difluoro-7-methyl-1,2,3,4-tetrahydro-[1,4]oxazepino[2,3-c]quinolin-6(7H)-one (1:1)] | 3.89 nM |
| C[C@H]1CCN(c2ncc(Cl)c(Nc3ccc4c(c3)c3c(c(=O)n4C)OCC(F)(F)[C@H](C4CC4)N3)n2)C1 [Example 12x01, (S)-10-((5-chloro-2-((S)-3-methylpyrrolidin-1-yl)pyrimidin-4-yl)amino)-2-cyclopropyl-3,3-difluoro-7-methyl-1,2,3,4-tetrahydro-[1,4]oxazepino[2,3-c]quinolin-6(7H)-one] | 26.9 nM |
| CC(=O)N(C)[C@H]1CN(c2ncc(Cl)c(Nc3ccc4c(c3)c3c(c(=O)n4C)OCC(F)(F)[C@H](C4CC4)N3)n2)CCC1(F)F [Example 9n, N-((S)-1-(5-chloro-4-(((S)-2-cyclopropyl-3,3-difluoro-7-methyl-6-oxo-1,2,3,4,6,7-hexahydro-[1,4]oxazepino[2,3-c]quinolin-10-yl)amino)pyrimidin-2-yl)-4,4-difluoropiperidin-3-yl)-N-methylacetamide] | 4.9 nM |
| Cn1c(=O)c2c(c3cc(Nc4nc(N5CCC(C#N)CC5)ncc4Cl)ccc31)N[C@@H](C1CC1)C(F)(F)CO2 [Example 12x38, (S)-1-(5-chloro-4-((2-cyclopropyl-3,3-difluoro-7-methyl-6-oxo-1,2,3,4,6,7-hexahydro-[1,4]oxazepino[2,3-c]quinolin-10-yl)amino)pyrimidin-2-yl)piperidine-4-carbonitrile] | 3.72 nM |
| COC1CCCN(c2ncc(Cl)c(Nc3ccc4c(c3)c3c(c(=O)n4C)OCC(F)(F)[C@H](C4CC4)N3)n2)C1 (mixture of isomers) [Example 10c, (S)-10-((5-chloro-2-((R)-3-methoxypiperidin-1-yl)pyrimidin-4-yl)amino)-2-cyclopropyl-3,3-difluoro-7-methyl-1,2,3,4-tetrahydro-[1,4]oxazepino[2,3-c]quinolin-6(7H)-one; (S)-10-((5-chloro-2-((S)-3-methoxypiperidin-1-yl)pyrimidin-4-yl)amino)-2-cyclopropyl-3,3-difluoro-7-methyl-1,2,3,4-tetrahydro-[1,4]oxazepino[2,3-c]quinolin-6(7H)-one] | 5.01 nM |
| CC1CN(c2ncc(Cl)c(Nc3ccc4c(c3)c3c(c(=O)n4C)OCC(F)(F)[C@H](C4CC4)N3)n2)CC(C)S1(=O)=O (stereo partly drawn) [Example 12x11, (2S)-10-((5-chloro-2-(2,6-dimethyl-1,1-dioxidothiomorpholino)pyrimidin-4-yl)amino)-2-cyclopropyl-3,3-difluoro-7-methyl-1,2,3,4-tetrahydro-[1,4]oxazepino[2,3-c]quinolin-6(7H)-one] | 1.62 nM |
| CC1CCN(c2ncc(Cl)c(Nc3ccc4c(c3)c3c(c(=O)n4C)OCC(F)(F)[C@H](C4CC4)N3)n2)CC1C (mixture of isomers) [Example 12x07, (2S)-10-((5-chloro-2-(3,4-dimethylpiperidin-1-yl)pyrimidin-4-yl)amino)-2-cyclopropyl-3,3-difluoro-7-methyl-1,2,3,4-tetrahydro-[1,4]oxazepino[2,3-c]quinolin-6(7H)-one] | 46.8 nM |
